Laboratory results published in patent US9890153B2, “Substituted 1H-pyrrolo [2, 3-b] pyridine and 1H-pyrazolo [3, 4-b] pyridine derivatives as salt inducible kinase 2 (SIK2) inhibitors” (Arrien Pharmaceuticals LLC, priority 2012, dated 2018).
Where two headings read alike, the source gives them in different places.

Key:
Format in all cases: biochemical
[1] = target: SIK2 (QIK) (SEQ ID NO: 11) (Homo sapiens, UniProt Q9H0K1); experiment: SIK2 kinase assay (radiometric, 10 μM ATP)
Method: Procedure: Enzyme was incubated with substrate peptide in reaction buffer in the presence and absence of test compounds or Staurosporine. All additions were done on ice, followed by the addition of ATP mix. Wells were uniformly mixed using an Eppendorff plate shaker and incubated at 30° C. for 20 min, and stopped by the addition of 5 μL of 3% phosphoric acid. Volume was increased to 100 μL by adding 0.8% phosphoric acid which was then transferred to PC filter mats (Millipore), pre-equilibrated with 70% ethanol and water. Plates were washed thrice with 100 μL 0.8% phosphoric acid and dried for an hour at 60° C.

[2] = target: T1, SIK3 (QSK) (SEQ ID NO: 24) (Homo sapiens, UniProt Q9Y2K2); experiment: Protein kinase assay, SIK3; conditions: read-out: SIK3 (QSK) (SEQ ID NO: 24) kinase inhibition result
T1 construct: Reaction Biology Corporation (assay service, HotSpot panel)
T1 sequence (Q9Y2K2 whole entry): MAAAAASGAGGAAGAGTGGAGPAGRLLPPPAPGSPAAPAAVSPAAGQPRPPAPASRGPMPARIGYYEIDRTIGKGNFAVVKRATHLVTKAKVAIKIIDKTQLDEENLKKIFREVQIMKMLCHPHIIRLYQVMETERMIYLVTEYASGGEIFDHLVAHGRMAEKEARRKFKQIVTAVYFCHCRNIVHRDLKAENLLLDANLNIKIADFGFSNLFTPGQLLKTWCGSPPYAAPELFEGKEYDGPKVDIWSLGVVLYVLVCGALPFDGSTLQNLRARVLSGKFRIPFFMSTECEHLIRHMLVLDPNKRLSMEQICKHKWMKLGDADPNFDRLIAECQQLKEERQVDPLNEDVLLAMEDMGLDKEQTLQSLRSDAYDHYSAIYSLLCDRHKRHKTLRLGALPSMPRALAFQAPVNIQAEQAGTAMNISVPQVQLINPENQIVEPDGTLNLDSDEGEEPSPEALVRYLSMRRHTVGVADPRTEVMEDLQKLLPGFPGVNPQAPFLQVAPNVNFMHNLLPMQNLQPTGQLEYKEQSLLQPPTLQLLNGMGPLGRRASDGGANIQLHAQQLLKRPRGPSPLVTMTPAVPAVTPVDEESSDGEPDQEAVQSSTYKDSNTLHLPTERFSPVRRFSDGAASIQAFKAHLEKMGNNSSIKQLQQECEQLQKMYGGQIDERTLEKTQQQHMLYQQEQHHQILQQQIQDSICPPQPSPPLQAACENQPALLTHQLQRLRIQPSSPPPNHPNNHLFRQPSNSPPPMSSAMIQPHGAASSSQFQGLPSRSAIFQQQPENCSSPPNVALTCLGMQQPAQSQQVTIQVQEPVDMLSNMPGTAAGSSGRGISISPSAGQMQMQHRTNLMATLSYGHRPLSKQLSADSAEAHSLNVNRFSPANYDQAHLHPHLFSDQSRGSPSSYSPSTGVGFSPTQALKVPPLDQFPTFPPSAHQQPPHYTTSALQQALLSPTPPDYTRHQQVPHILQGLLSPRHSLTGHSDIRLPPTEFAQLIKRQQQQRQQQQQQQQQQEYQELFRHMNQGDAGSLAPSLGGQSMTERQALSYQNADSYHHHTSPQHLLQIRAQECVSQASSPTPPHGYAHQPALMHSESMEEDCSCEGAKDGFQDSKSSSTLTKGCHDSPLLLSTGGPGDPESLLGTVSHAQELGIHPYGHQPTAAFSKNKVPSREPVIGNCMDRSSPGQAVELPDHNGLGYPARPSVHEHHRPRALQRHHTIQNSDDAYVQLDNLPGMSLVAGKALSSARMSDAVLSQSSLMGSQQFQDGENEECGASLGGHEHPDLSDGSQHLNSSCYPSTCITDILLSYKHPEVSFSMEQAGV
Method: (§1) Briefly, specific kinase/substrate pairs along with required cofactors were prepared in reaction buffer; 20 mM Hepes (pH 7.5), 10 mMmgCl2, 1 mM EGTA, 0.02% Brij35, 0.02 mg/ml BSA, 0.1 mM Na3VO4, 2 mM DTT, 1% DMSO. Compounds were delivered into the reaction, followed ˜20 min later by addition of a mixture of ATP (Sigma) and 33P ATP (PerkinElmer) to a final concentration of 10 μM. […] IC50 values and curve fits were obtained using Prism (GraphPad Software). Kinome tree representations were prepared using Kinome Mapper (http://www.reactionbiology.com/apps/kinome/mapper/LaunchKinome.htm).

SIK1 (SEQ ID NO: 10) = target: T2, SIK1 (SEQ ID NO: 10) (Homo sapiens, UniProt P57059); experiment: Protein kinase assay, SIK1; conditions: read-out: SIK1 (SEQ ID NO: 10) kinase inhibition result
T2 construct: Reaction Biology Corporation (assay service, HotSpot panel)
T2 sequence (P57059 whole entry): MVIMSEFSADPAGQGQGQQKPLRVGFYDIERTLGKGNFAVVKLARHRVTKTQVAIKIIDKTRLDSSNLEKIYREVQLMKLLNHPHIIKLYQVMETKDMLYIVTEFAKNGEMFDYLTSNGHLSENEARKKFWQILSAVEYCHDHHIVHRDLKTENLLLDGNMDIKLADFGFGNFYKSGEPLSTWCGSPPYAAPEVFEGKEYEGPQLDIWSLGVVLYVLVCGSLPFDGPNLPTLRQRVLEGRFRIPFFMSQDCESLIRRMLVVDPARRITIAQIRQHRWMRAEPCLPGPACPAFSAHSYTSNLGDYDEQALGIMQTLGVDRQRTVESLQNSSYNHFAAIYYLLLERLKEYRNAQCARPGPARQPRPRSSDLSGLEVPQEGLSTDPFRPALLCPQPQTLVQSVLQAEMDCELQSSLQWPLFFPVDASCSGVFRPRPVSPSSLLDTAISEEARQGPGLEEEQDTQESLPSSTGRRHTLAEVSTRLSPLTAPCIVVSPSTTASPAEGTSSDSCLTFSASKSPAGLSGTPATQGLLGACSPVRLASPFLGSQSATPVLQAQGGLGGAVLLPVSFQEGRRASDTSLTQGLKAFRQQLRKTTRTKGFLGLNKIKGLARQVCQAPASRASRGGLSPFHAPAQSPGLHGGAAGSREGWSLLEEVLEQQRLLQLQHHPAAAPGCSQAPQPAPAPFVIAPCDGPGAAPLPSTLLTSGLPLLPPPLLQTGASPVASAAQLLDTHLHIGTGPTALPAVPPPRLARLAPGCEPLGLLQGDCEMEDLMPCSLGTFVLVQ
Method: as §1

[3] = read-out: SIK2 (QIK) (SEQ ID NO: 11) kinase inhibition result
[4] = compounds purchased from vendor library, read-out: SIK2 IC50

Chain of SIK2 (QIK) (SEQ ID NO: 11) (Q9H0K1 whole entry): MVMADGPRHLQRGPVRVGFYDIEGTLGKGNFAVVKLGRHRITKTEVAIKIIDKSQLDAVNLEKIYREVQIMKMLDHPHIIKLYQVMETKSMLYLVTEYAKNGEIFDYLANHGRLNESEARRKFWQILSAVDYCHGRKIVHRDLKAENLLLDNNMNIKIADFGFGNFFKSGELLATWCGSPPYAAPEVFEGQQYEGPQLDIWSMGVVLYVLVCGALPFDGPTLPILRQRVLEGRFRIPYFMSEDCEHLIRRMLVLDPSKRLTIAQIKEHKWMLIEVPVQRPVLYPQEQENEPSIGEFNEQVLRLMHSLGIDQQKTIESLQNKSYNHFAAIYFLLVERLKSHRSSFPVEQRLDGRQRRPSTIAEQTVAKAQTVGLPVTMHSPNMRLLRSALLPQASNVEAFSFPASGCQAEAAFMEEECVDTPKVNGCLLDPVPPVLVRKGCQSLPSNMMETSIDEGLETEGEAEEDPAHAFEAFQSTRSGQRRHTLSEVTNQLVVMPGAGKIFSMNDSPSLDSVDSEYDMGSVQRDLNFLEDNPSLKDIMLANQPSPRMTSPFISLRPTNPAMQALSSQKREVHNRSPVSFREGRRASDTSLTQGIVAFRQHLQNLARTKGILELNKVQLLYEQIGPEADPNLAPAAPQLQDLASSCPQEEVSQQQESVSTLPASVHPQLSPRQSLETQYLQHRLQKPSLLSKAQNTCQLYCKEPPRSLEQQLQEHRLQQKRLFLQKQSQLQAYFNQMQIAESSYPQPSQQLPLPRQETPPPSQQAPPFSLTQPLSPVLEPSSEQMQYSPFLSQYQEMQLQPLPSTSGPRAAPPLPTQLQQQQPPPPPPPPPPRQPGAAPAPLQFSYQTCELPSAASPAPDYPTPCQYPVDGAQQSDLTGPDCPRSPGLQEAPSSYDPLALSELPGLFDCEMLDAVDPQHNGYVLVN

IC50 [1, 3] [µM]	IC50 [1, 4] [µM]	SMILES	other results
> 0.1		Clc1ccnc2[nH]cc(-c3ccsc3)c12 [Example 29, 4-chloro-3-(thiophen-3-yl)-1H-pyrrolo[2,3-b]pyridine]	
< 0.1		COc1c(F)cc(F)cc1-c1c[nH]c2ncc(-c3cnn(C4CCN(C)CC4)c3)cc12 [Example 212, 3-(3,5-difluoro-2-methoxyphenyl)-5-(1-(1-methylpiperidin-4-yl)-1H-pyrazol-4-yl)-1H-pyrrolo[2,3-b]pyridine]	IC50 [2]: < 0.1 µM; IC50 (SIK1 (SEQ ID NO: 10)): > 0.1 µM
< 0.1		COc1c(F)cccc1-c1c[nH]c2ncc(-c3ccsc3)cc12 [Example 125, 3-(3-fluoro-2-methoxyphenyl)-5-(thiophen-3-yl)-1H-pyrrolo[2,3-b]pyridine]	IC50 (SIK1 (SEQ ID NO: 10)): > 1 µM
> 0.1		COc1cc(F)ccc1-c1c[nH]c2nccc(-c3ccsc3)c12 [Example 28, 3-(4-fluoro-2-methoxyphenyl)-4-(thiophen-3-yl)-1H-pyrrolo[2,3-b]pyridine]	
	> 1	COc1cc(-c2n[nH]c3nccc(-c4cccc(N(C)C)c4)c23)cc(OC)c1OC [compound 9, N,N-dimethyl-3-(3-(3,4,5-trimethoxyphenyl)-1H-pyrazolo[3,4-b]pyridin-4-yl)aniline]	
> 0.1		Fc1cccc(-c2c[nH]c3nccc(-c4ccsc4)c23)c1Cl [Example 23, 3-(2-chloro-3-fluorophenyl)-4-(thiophen-3-yl)-1H-pyrrolo[2,3-b]pyridine]	
> 0.1		COc1ccc(-c2c[nH]c3nccc(-c4ccsc4)c23)c(OC)n1 [Example 101, 3-(2,6-dimethoxypyridin-3-yl)-4-(thiophen-3-yl)-1H-pyrrolo[2,3-b]pyridine]	
	< 0.1	COc1ccccc1-c1n[nH]c2nccc(-c3ccoc3)c12 [compound 10, 4-(furan-3-yl)-3-(2-methoxyphenyl)-1H-pyrazolo[3,4-b]pyridine]	
	> 1	COc1cccc(-c2ccnc3[nH]nc(-c4cccc(C(F)(F)F)c4)c23)c1 [compound 8, 4-(3-methoxyphenyl)-3-(3-(trifluoromethyl)phenyl)-1H-pyrazolo[3,4-b]pyridine]	
	> 1	COc1cc(-c2ccnc3[nH]nc(-c4cccc(NS(C)(=O)=O)c4)c23)cc(OC)c1OC [compound 3, N-(3-(4-(3,4,5-trimethoxyphenyl)-1H-pyrazolo[3,4-b]pyridin-3-yl)phenyl)methanesulfonamide]	
> 1		COc1ccc(-c2c[nH]c3nccc(-c4ccsc4)c23)cc1 [Example 25, 3-(4-methoxyphenyl)-4-(thiophen-3-yl)-1H-pyrrolo[2,3-b]pyridine]	
	> 1	COc1cc(-c2n[nH]c3nccc(-c4cccc(C(=O)NCCN(C)C)c4)c23)cc(OC)c1OC [compound 4, N-(2-(dimethylamino)ethyl)-3-(3-(3,4,5-trimethoxyphenyl)-1H-pyrazolo[3,4-b]pyridin-4-yl)benzamide]	
	> 1	FC(F)(F)c1cccc(-c2ccnc3[nH]nc(-c4ccc5c(c4)OCO5)c23)c1 [compound 2, 3-(benzo[d][1,3]dioxol-5-yl)-4-(3-(trifluoromethyl)phenyl)-1H-pyrazolo[3,4-b]pyridine]	
> 0.1		CCOc1ccccc1-c1c[nH]c2nccc(-c3ccsc3)c12 [Example 26, 3-(2-ethoxyphenyl)-4-(thiophen-3-yl)-1H-pyrrolo[2,3-b]pyridine]	
	> 1	OCCNC(O)c1cccc(-c2n[nH]c3nccc(-c4cccc(C(F)(F)F)c4)c23)c1 (stereo not drawn) [compound 7, 2-((hydroxy(3-(4-(3-(trifluoromethyl)phenyl)-1H-pyrazolo[3,4-b]pyridin-3-yl)phenyl)methyl)amino)ethanol]	
	> 1	CNC(=O)c1cccc(-c2ccnc3[nH]nc(-c4cccc(C(F)(F)F)c4)c23)c1 [compound 12, N-methyl-3-(3-(3-(trifluoromethyl)phenyl)-1H-pyrazolo[3,4-b]pyridin-4-yl)benzamide]	
> 1		CN(C)S(=O)(=O)c1ccccc1-c1c[nH]c2nccc(-c3ccsc3)c12 [Example 94, N,N-dimethyl-2-(4-(thiophen-3-yl)-1H-pyrrolo[2,3-b]pyridin-3-yl)benzenesulfonamide]	
> 1		Clc1ccccc1-c1c[nH]c2ncc(-c3ccsc3)cc12 [Example 139, 3-(2-chlorophenyl)-5-(thiophen-3-yl)-1H-pyrrolo[2,3-b]pyridine]	
	> 1	COc1cc(-c2n[nH]c3nccc(-c4cccc(C(N)=O)c4)c23)cc(OC)c1OC [compound 11, 3-(3-(3,4,5-trimethoxyphenyl)-1H-pyrazolo[3,4-b]pyridin-4-yl)benzamide]	
	> 0.1	COc1cc(-c2n[nH]c3nccc(-c4ccc(C(C)C)cc4)c23)cc(OC)c1OC [compound 6, 4-(4-isopropylphenyl)-3-(3,4,5-trimethoxyphenyl)-1H-pyrazolo[3,4-b]pyridine]	

IC50 [1, 3] [µM]	IC50 [1, 4] [µM]	SMILES	other results
> 1		c1cc(-c2ccsc2)c2cc[nH]c2n1 [Example 20, 4-(thiophen-3-yl)-1H-pyrrolo[2,3-b]pyridine]	
> 1		Fc1cc(OC(F)(F)F)ccc1-c1c[nH]c2nccc(-c3ccsc3)c12 [Example 100, 3-(2-fluoro-4-(trifluoromethoxy)phenyl)-4-(thiophen-3-yl)-1H-pyrrolo[2,3-b]pyridine]	
> 0.1		COc1ccccc1-c1c[nH]c2ncc(-c3ccsc3)cc12 [Example 113, 3-(2-methoxyphenyl)-5-(thiophen-3-yl)-1H-pyrrolo[2,3-b]pyridine]	
	> 0.1	COc1ccc(-c2ccnc3[nH]nc(-c4cccnc4)c23)cc1OC [compound 1, 4-(3,4-dimethoxyphenyl)-3-(pyridin-3-yl)-1H-pyrazolo[3,4-b]pyridine]	
		COc1c(F)cc(F)cc1-c1c[nH]c2ncc(-c3cnn(C4CCN(S(C)(=O)=O)CC4)c3)cc12 [Example 214, 3-(3,5-difluoro-2-methoxyphenyl)-5-(1-(1-(methylsulfonyl)piperidin-4-yl)-1H-pyrazol-4-yl)-1H-pyrrolo[2,3-b]pyridine]	IC50 (SIK1 (SEQ ID NO: 10)): > 1 µM
> 1		COc1ccccc1-c1ccnc2[nH]cc(-c3ccsc3)c12 [Example 30, 4-(2-methoxyphenyl)-3-(thiophen-3-yl)-1H-pyrrolo[2,3-b]pyridine]	
> 1		Fc1ccc(-c2c[nH]c3ncc(-c4ccsc4)cc23)cc1Cl [Example 140, 3-(3-chloro-4-fluorophenyl)-5-(thiophen-3-yl)-1H-pyrrolo[2,3-b]pyridine]	
	< 0.1	COc1ccccc1-c1n[nH]c2nccc(-c3ccsc3)c12 [compound 5, 3-(2-methoxyphenyl)-4-(thiophen-3-yl)-1H-pyrazolo[3,4-b]pyridine]	
> 1		COc1c(F)cc(F)cc1-c1c[nH]c2ncc(-c3ccsc3)cc12 [Example 126, 3-(3,5-difluoro-2-methoxyphenyl)-5-(thiophen-3-yl)-1H-pyrrolo[2,3-b]pyridine]	
> 1		FC(F)(F)Oc1ccccc1-c1c[nH]c2nccc(-c3ccsc3)c12 [Example 99, 4-(thiophen-3-yl)-3-(2-(trifluoromethoxy)phenyl)-1H-pyrrolo[2,3-b]pyridine]	
> 0.1		COc1ncccc1-c1c[nH]c2nccc(-c3ccsc3)c12 [Example 36, 3-(2-methoxypyridin-3-yl)-4-(thiophen-3-yl)-1H-pyrrolo[2,3-b]pyridine]	IC50 (SIK1 (SEQ ID NO: 10)): > 0.1 µM
> 0.1		COc1cc(Cl)ccc1-c1c[nH]c2nccc(-c3ccsc3)c12 [Example 24, 3-(4-chloro-2-methoxyphenyl)-4-(thiophen-3-yl)-1H-pyrrolo[2,3-b]pyridine]	
> 0.1		Cc1ncc(-c2cnc3[nH]cc(-c4cccc(F)c4Cl)c3c2)s1 [Example 137, 5-(3-(2-chloro-3-fluorophenyl)-1H-pyrrolo[2,3-b]pyridin-5-yl)-2-methylthiazole]	
> 0.1		COc1ccc(-c2n[nH]c3nccc(-c4ccsc4)c23)cc1 [Example 7, 3-(4-methoxyphenyl)-4-(thiophen-3-yl)-1H-pyrazolo[3,4-b]pyridine]	
> 1		Fc1ccccc1-c1c[nH]c2nccc(-c3ccsc3)c12 [Example 22, 3-(2-fluorophenyl)-4-(thiophen-3-yl)-1H-pyrrolo[2,3-b]pyridine]	
> 0.1		N#Cc1ccc(-c2cnc3[nH]cc(-c4cccc(F)c4Cl)c3c2)s1 [Example 132, 5-(3-(2-chloro-3-fluorophenyl)-1H-pyrrolo[2,3-b]pyridin-5-yl)thiophene-2-carbonitrile]	
> 0.1		COc1ccc(-c2n[nH]c3nccc(-c4ccsc4)c23)c(OC)c1 [Example 87, 3-(2,4-dimethoxyphenyl)-4-(thiophen-3-yl)-1H-pyrazolo[3,4-b]pyridine]	IC50 (SIK1 (SEQ ID NO: 10)): > 1 µM
> 0.1		Clc1cccc(-c2c[nH]c3nccc(-c4ccsc4)c23)c1 [Example 47, 3-(3-chlorophenyl)-4-(thiophen-3-yl)-1H-pyrrolo[2,3-b]pyridine]	
> 0.1		c1cnc(N2CCOCC2)c(-c2c[nH]c3nccc(-c4ccsc4)c23)c1 [Example 37, 4-(3-(4-(thiophen-3-yl)-1H-pyrrolo[2,3-b]pyridin-3-yl)pyridin-2-yl)morpholine]	IC50 (SIK1 (SEQ ID NO: 10)): > 0.1 µM
